In patent US20170266154A1, “METHOD FOR TREATING ALZHEIMER'S DISEASE AND 2, 3-BIPHOSPHOGLYCERATE METABOLISM DISORDER INDUCED” (National Sun Yat-sen University, priority 2016, published 2017):

Biological target: hemoglobin (Homo sapiens, UniProt P68871+P69905)
Assay: hemoglobin-oxygen equilibrium curves (P50 value, oxygen saturation fraction)
Format: biochemical
Conditions: for effect in combination with 2,3-BPG on hemoglobin modulation: FIG. 2
From the text: The oxygen affinity of hemoglobin was represented by P50 value. The P50 value was the required partial pressure of oxygen to achieve 50% oxygen saturation.

[1] = PO2 20 mmHg, 2,3-BPG 1.2 mM, alone or after treating with a phthalide compound (FIG. 7)

Sequence of hemoglobin (P69905 2-142 limits assumed): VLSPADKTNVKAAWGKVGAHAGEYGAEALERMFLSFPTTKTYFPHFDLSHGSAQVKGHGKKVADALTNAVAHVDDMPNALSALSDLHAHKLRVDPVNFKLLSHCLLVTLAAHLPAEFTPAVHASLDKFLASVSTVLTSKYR
Sequence of hemoglobin (P68871 2-147 limits assumed): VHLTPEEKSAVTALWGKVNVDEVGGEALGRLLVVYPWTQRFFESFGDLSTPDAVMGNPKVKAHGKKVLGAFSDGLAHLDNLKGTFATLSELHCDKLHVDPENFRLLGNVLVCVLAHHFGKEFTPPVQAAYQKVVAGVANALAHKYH

Row | oxygen release efficiency [1] | oxygen saturation level / fraction of hemoglobin [1] | P50 value of hemoglobin (about 4 mM 2,3-BPG, no phthalide compound) | oxygen release efficiency of hemoglobin (oxygen partial pressure 20 mmHg, 12 mM 2,3-BPG, hemoglobin without 2,3-BPG 20%) | oxygen saturation fraction of hemoglobin (oxygen partial pressure 20 mmHg, 12 mM 2,3-BPG, hemoglobin without 2,3-BPG about 80%) | 2,3-BPG required for hemoglobin to reach a P50 value of 18.8 mmHg (approximately the same or higher) (without or after administration of phthalide compounds (FIG. 6)) | Compound | effect in combination with 2,3-BPG on hemoglobin modulation
1 | 40% | about 60% | 18.8 mmHg | 65% | ~35% | about 4 mM | O=C(O)C(COP(=O)(O)O)OP(=O)(O)O (centres unmarked) [2,3-BPG, 2,3-bisphosphorglycerate] | –
2 | – | – | – | – | – | – | CCC/C=C1\OC(=O)C2=C1CC[C@@H](O)[C@@H]2O [Senkyunolide I, senkyunolide I] | synergistic effect
3 | – | – | – | – | – | – | CCC/C=C1\OC(=O)C2=C1CCC=C2 [Z-Ligustilide, Z-ligustilide] | synergistic effect
